From patent US11446352B2, “Compositions and methods for inhibiting tumor-induced immune suppression” (priority 2017, dated 2022)

How the values were obtained:
[1] = system: Hs587T and MDA-MB-453 cell lines; test: autophagy, mitochondria content and mitophagy in treated cancer cells; format: cell-based, human
Source text: The first bar indicates 100% folding activity of RRL without inhibitor. PR22 indicates the antibody without PR but with RRL and EnnA. PR represents the antibody (PR22) with PR but without RRL. All other samples have PR22, PR, and RRL without (first bar) or with increased concentration of EnnA. FIGS. 1C-1E are line graphs of cell survival versus EnnA concentration (μM) in breast cancer cell lines Hs578T (FIG. 1C), […] (FIG. 1D) and MDA-MB231 (FIG. 1E) upon treatment with EnnA for 48 and 72 h. […] PR alone (PR), antibody (PR22)+RRL, PR+RRL without inhibitor (RRL), PR+RRL with 1 μM 17-AAG (17AAG) PR+RRL with 10 μM BEAU or EnnA. FIGS. 1G-1I are autoradiographs of Western blots of cytosols from various cell lines treated with 17-AAG (1 μM) or EnnA (3 μM) with antibodies against the specified proteins. FIG. 1J is an autoradiograph showing EnnA causes autophagy in Hs578T and MDA-MB453 cell lines. FIGS. 1K-1N are electron microscopy micrographs showing autophagosomes and reduced mitochondria content in Hs578T cells treated with DMSO or EnnA. FIGS. 1O-1P are fluorescence micrographs showing EnnA causing reduced mitochondria content in Hs578T cells. FIGS. 1Q-1BB are fluorescence micrographs showing mitophagy in Hsp578T cells treated with EnnA as indicated by colocalization of the mitochondria marker Cox4 and the autophagy marker LC3BII.

[2] = system: 4T1 cells; test: MTT cell proliferation assay; format: cell-based, murine; details: 4T1, in vitro, 72 h
Source text: (§1) FIGS. 2I-2K show FACS analysis of Hsp90β expression on the cell surface of E0771 cells treated with DMSO or EnnA. FIGS. 2L-2N show FACS analysis of the ratio of Hsp90α to Hsp90β expression on the cell surface of E0771 cells treated with DMSO or EnnA. FIGS. 2O-2Q show FACS analysis of Hsp90α expression on the cell surface of E0771 cells treated with DMSO or EnnA. FIG. 2R is a bar graph showing expression of Hsp90β on the surface of AT3 cells treated with DMSO or EnnA. FIG. 2S is a bar graph showing expression of Hsp90α on the surface of AT3 cells treated with DMSO or EnnA. FIGS. 2T-2X show FACS analysis of Hsp90β expression on the surface of E0771 tumor cells treated with mIgG, DMSO, or EnnA.
(§2) The mechanism of action of EnnA appears to be different from that of 17-AAG. […] Further studies studies using murine breast cancer cells lines have shown that EnnA kills E0771, AT3, EMT6 and 4T1 in vitro (FIG. 2A-2D).

[3] = system: AT3 cells; test: MTT cell proliferation assay; format: cell-based, murine; details: AT3, in vitro, 72 h
Source text: as §1, §2

[4] = system: E0771 cells; test: MTT cell proliferation assay; format: cell-based, murine; details: E0771, in vitro, 72 h
Source text: as §1, §2

[5] = system: EMT6 cells; test: MTT cell proliferation assay; format: cell-based, murine; details: EMT6, in vitro, 72 h
Source text: as §1, §2

[6] = system: IDO-GFP fusion protein; format: cell-based; details: HEK 293 cells
Procedure: FIG. 3A-3B are autoradiographs of a Western blot showing expression of the indicated proteins in control (left lane) and 0.5 μM EnnA-treated (right lane) E0771 (FIG. 3A) and AT3 (FIG. 3B) cells. FIG. 3C is a graph showing FACS analysis of PD-L1 level in AT3 cells. FIGS. 3D-3K are graphs showing qPCR analysis of the mRNA level of cytokines TNFa (FIG. 3D), IL-6 (FIG. 3E), TGFb1 (FIG. 3F) and IL-10 (FIG. 3G), the chemokines S100a9 (FIG. 3J) and CCL3 (FIG. 3K), as well as PDL1 (FIG. 3H) and IDO (FIG. 3I). FIGS. 3L-3Q are micrographs of HEK293 cells transiently transfected with GFP-IDO fusion protein expressing or GFP alone plasmids for 24 h. Cells were then treated with 5 μM EnnA for 6 h and analyzed for green fluorescence and bright light. FIG. 3R is a line graph of μg/ml of tryptophan and its IDO-mediated product kynurenine using the previously reported HPLC-based assay.
Western blot analysis (FIG. 3A-3B) confirmed that EnnA destabilizes pAKT and reduces the protein expression of Hsp40 in E0771 and AT3. […] It also reduces the mRNA level of the chemokines S100a9 and CCL3 (FIG. 3J-3K). Importantly, EnnA reduces the mRNA and protein levels of the key immunological checkpoint component PDL-1 (FIG. 3H). Similar results were obtained with EMT6 (not shown). […]

[7] = system: E0771 tumors; test: E0771 syngeneic tumor model in C57BL/6 immunocompetent mice; format: in vivo; details: for anti-tumor activity (tumor volume): C57BL/6, 10 mg/kg every other day
Procedure: 50,000 E0771 cells were surgically implanted in mammary fad pad of 10 C57BL/6 immunocompetent mice and 10 immunocompromised nude mice. 12 days after surgery, B6 and nude mice were divided into two groups each. the EnnA group was injected with 10 mg/kg of EnnA every other day, and the control group received a mixture of 15% DMSO and 20% cremophor in PBS.
100,000 E0771 cells were surgically implanted in mammary fat pad of 20 mice. Ten days after surgery, mice were divided into two groups: the EnnA group was injected with 10 mg/kg of EnnA every other day, and the control group received a mixture of 15% DMSO and 20% cremophor in PBS.

[8] = system: E0771 tumors; test: re-challenge of cured mice with E0771 cells (immune memory); format: in vivo; details: EnnA/CPA-treated group re-challenged with 50,000 E0771 cells; tumors completely eliminated 10 days later
Source text: FIG. 6A is a line graph of tumor volume (mm^3) versus days post implantation. FIG. 6B-6E are images of three representative mice from each indicated group at the end of the treatment. FIGS. 6F-6I are a panel of images of mice from the CPA+EnnA group monitored for tumor recurrence for two more months (3 months post implantation). No tumor recurrence was observed. They were re-challenged with 50,000 E0771 cells implanted in the opposite fat pad. Five Naïve mice were used as controls. Upper panels and lower show luciferase luminescence images of mice bearing tumors at 7 and 17 days after the second implantation, respectively.
The anti-tumor activity of EnnA involves both cytotoxicity and clearance by T cells. […] Indeed, EnnA/CPA-treated mice remained tumor-free for 2 months after the end of EnnA treatment. To test whether the cured mice developed immune memory, […] 50,000 E0771 tumor cells.

CC[C@H](C)[C@H]1C(=O)O[C@H](C(C)C)C(=O)N(C)[C@@H]([C@@H](C)CC)C(=O)O[C@H](C(C)C)C(=O)N(C)[C@@H]([C@@H](C)CC)C(=O)O[C@H](C(C)C)C(=O)N1C [EnnA, Enniatin A]
mitochondria content in cancer cells ([1]; Hs578T cells): reduces | mitophagy ([1]; Hs578T cells, Cox4 / LC3BII colocalization): induction of mitophagy | mode of cell death (apoptosis / autophagy) ([1]; Hs587T and MDA-MB-453 cell lines): induces autophagy | IC50 [2]: ~2.5 µM | IC50 [3]: 5 to 10 µM | IC50 [4]: 5 to 10 µM | IC50 [5]: ~2.5 µM | IDO-GFP green fluorescence ([6]; 5 μM EnnA, 6 h): dramatic loss | cell death ([6]; early time point (6 h)): No significant cell death | effect on bodyweight or activities of mice ([7]; 10 mg/kg every other day): No significant effect | anti-tumor activity (tumor volume) ([7]; Example 3: 50,000 E0771 cells): powerful anti-tumor activity | anti-tumor activity (tumor volume) ([7]; Example 4: 100,000 E0771 cells): powerful anti-tumor activity | mice showing small tumors seven days after the second implantation [8]: two of the seven
